From patent US20020032183A1, “Use of (di-substituted-phenyl)-pyrimidinyl-imidazole derivatives as JNK-inhibitors” (priority 2000, published 2002)
Where a name gives a salt, the structure may show the parent alone.

What was measured:
JNK3α1 = molecular target: T1, JNK3α1 (Homo sapiens, UniProt P53779); test: Biochemical determination of inhibition of JNK3α1; details: truncated JNK3α1, 1 μM ATP, 0.5 μM GST-ATF2, 30° C., 30 min
T1 construct: Truncated JNK3α1 (amino acids 39-422) was expressed in E. coli; made in house; host or cells: E. coli
Method: Activation reactions were incubated at 30° C. for 2 h.
Enzyme inhibition studies were performed at 30° C. for 30 min with 0.5 μM GST-ATF2, 1 μM ATP, 1 nM activated JNK3α1 and compound ranging from 30 pM to 100 μM. Reactions were carried out in 100 μL volumes containing the final concentrations of the following: 25 mM HEPES (Sigma) pH 7.4; 10 mM MgCl2 (Sigma); 2 mM DTT (Sigma); 20 mM β-glycerophosphate (Sigma); 0.1 mM Na3VO4 (Sigma); 2 μCi [γ-^33P]ATP (2000 Ci/mmol; 1 Ci=37 GBq) (Amersham Pharmacia Biotech, Piscataway, N.J.). Reactions were stopped with 100 μL 100 mM EDTA/15 mM sodium pyrophosphate. Immobilon™-P 96-well plates (Millipore MAIPNOB™ 10, available from the Millipore Corp., Bedford, Mass.) were pretreated with 100 μL methanol, followed by 100 μL 15 mM sodium pyrophosphate. Fifty μL of the stopped reaction was spotted in triplicate on the Immobilon™-P 96-well plate. The samples were vacuum-filtered and washed three times each with 100 μL 75 mM H3PO4 to remove unincorporated [γ-^33P]ATP. After the third H3PO4 wash and a final filtration step to remove H3PO4, 50 μL of Microscint™-20 (Packard BioScience Ltd., Pangbourne, Berkshire, U.K.) was added to each well and samples were analyzed on a Packard Topcount™ liquid scintillation counter. IC50 values were determined by fitting the data to the equation for a four parameter logistic.

[1] = tested on: Rat superior cervical ganglion neurons; test: Sympathetic neuronal survival assay (no NGF exposure; GAP-43 ELISA and cell counts); format: cell-based; details: NGF 1 ng/ml
Method: Activation of c-jun-N-terminal kinase (JNK) has been implicated in apoptosis in sympathetic neurons. An inhibitor of JNK, Example 2, was tested for neuroprotective effects in two models of sympathetic neuronal cell death.
In the first model, ganglia were dissociated and plated directly into culture plates in the presence of compound for 48 hours, then fixed and survival assayed using an ELISA for GAP-43. This model will hereafter be referred to as the ‘survival assay’.
Ganglia were enzymatically dissociated using 0.25% trypsin for 45 minutes. The trypsin was then inhibited using Dulbecco's MEM (DMEM) supplemented with 10% fetal bovine serum, and the cells mechanically triturated using a pipette tip to form a single cell suspension. Neurons in the suspension were counted using a haemocytometer, and plated at a density of 3000-5000 neurons per well in poly-D-lysine and laminin coated 96 well tissue culture clusters in DMEM supplemented with B27 serum substitute. Cultures were then incubated at 37° C./5% CO2. One hour following plating, cultures were either treated with NGF 25 ng/ml or with L-790,984 at a range of concentrations for the NGF deprivation and survival assays respectively.
Cultures for the NGF deprivation assay were returned to the incubator for 4 days. Following this, the medium was aspirated, plates washed once with DMEM/B27, and the cultures treated with Example 2 at concentrations ranging from 1 nM to 10 μM, together with an anti-NGF blocking antibody at 250 ng/ml. Cultures were then returned to the incubator for a further 72 hours prior to fixation and survival quantification. Cultures treated with Example 2 immediately for the survival assay were returned to the incubator for 48 hours; cultures were then fixed and survival quantified using the GAP-43 ELISA.
Cultures were fixed by the addition of an equal volume 4% paraformaldehyde to each well for 10 minutes; this was then aspirated, and replaced by a further volume of 4% paraformaldehyde for a further 20 minutes at room temperature. Plates were then washed three times with PBS/0.3% TX100, and non-specific binding sites blocked by the addition of 5% normal horse serum (NHS) in PBS/0.3% TX100. Plates were incubated at room temperature for one hour, then the blocking serum was aspirated without washing and replaced with primary antibody. The primary antibody used was a mouse monoclonal antibody raised against Growth Associated Protein 43 (Sigma), prepared at a dilution of 1:500 in PBS/0.3% TX100/5% NHS. Primary antibody was added to all sample wells, with four control wells returned to blocking serum to act as minus primary control. Plates were then refrigerated overnight at 4° C. The next day, plates were washed three times with PBS/0.3 TX100 and secondary antibody added. The secondary antibody used was peroxidase conjugated sheep anti-mouse IgG, and was added at a dilution of 1:1000 in PBS/0.3% TX100/5% NHS. Plates were incubated for 1 hour at room temperature, then washed three times with PBS/0.3% TX100, and K-Blue insoluble peroxidase substrate added for 30 minutes at room temperature. The optical density of the plates was then read at 650 nm, and the survival of neurons calculated and expressed as percentage of the control response.
Cell counts were performed on one sample plate for each model of sympathetic neuronal cell death, by the addition of a tertiary antibody to the plate, followed by avidin-biotin complex and an insoluble peroxidase substrate. Following quantification of optical density, plates were washed three times in PBS/0.3% TX100, and non-specific sites blocked using PBS/0.3% TX100/5% normal rabbit serum (“NRS”). Plates were incubated for one hour at room temperature, then the blocking serum was aspirated and replaced with biotinylated rabbit anti-sheep IgG at a dilution of 1:500 in PBS/0.3% TX10O/5% NRS. […]

T1 sequence (P53779 39-422 isoform P53779-2): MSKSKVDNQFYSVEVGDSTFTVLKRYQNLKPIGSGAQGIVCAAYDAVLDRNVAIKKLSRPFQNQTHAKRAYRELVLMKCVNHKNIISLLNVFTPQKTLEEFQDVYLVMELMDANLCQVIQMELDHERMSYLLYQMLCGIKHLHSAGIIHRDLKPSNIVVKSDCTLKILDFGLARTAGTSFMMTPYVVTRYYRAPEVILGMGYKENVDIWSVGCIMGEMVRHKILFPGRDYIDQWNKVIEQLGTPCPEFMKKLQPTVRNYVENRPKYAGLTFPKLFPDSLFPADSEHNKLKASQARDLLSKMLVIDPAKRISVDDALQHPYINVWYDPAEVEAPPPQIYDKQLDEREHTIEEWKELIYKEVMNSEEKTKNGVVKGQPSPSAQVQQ

Molecule: CCCn1c(C2CCNCC2)nc(-c2ccc(Cl)c(Cl)c2)c1-c1ccnc(NC2CC2)n1 [Example 1, Cyclopropyl-{4-[5-(3,4-dichlorophenyl)-2-piperidin-4-yl-3-propyl-3H-imidazol-4-yl]-pyrimidin-2-yl}amine]
- IC50 (JNK3α1): 8 nM

Molecule: Clc1ccc(-c2nc(C3CCNCC3)n(CC3CC3)c2-c2ccnc(NC3CC3)n2)cc1Cl [Example 7, Cyclopropyl-{4-[3-cyclopropylmethyl-5-(3,4-dichlorophenyl)-2-piperidin-4-yl-3H-imidazol-4-yl]-pyrimidin-2-yl}amine bis trifluoroacetic acid salt]
- IC50 (JNK3α1): 4 nM

B1: NGF: NGF at 1 ng/ml, comparison group in the sympathetic neuronal survival assay; these neurons are NGF dependent (protein, UniProt P01139 122-241, looked up)
Beta-nerve growth factor: SSTHPVFHMGEFSVCDSVSVWVGDKTTATDIKGKEVTVLAEVNINNSVFRQYFFETKCRASNPVESGCRGIDSKHWNSYCTTTHTFVKALTTDEKQAAWRFIRIDTACVCVLSRKATRRG
- Survival, ELISA Data Mean ([1]; GAP-43 ELISA): 618.55
- Survival, Cell Counts Mean ([1]; immunostained neurons per well): 587.00
